According to patent US6653311B1, “5-lipoxygenase inhibitors: (2-azinylamino) quinone derivatives” (Board of Supervisors of Louisiana State University, priority 2002, dated 2003):
One block for each compound: values may come before it.

Assays:
COX-1 = COX-1 (Homo sapiens, UniProt P23219); assay: In vitro inhibition of COX-1 activity; conditions: read-out: COX-1 percent inhibition
Text: (§1) Percent inhibition mean values ±SD from at least three individual determinations are shown.

5-lipoxygenase (5-LO) = biological target: T1, 5-lipoxygenase (5-LO) (Oryctolagus cuniculus, UniProt G1SNX0); assay: Radioisotopic assay of 5-LO activity (LTB4 formation from 14C-arachidonic acid) in rabbit peritoneal PMNL stimulated with A-23187; type: cell-based; conditions: for inhibition at 1 µM: rabbit peritoneal neutrophils (PMNL), mean ± s.d. of three experiments in duplicate, read-out: % Inhibition (percent inhibition of LTB4 formation); for in vitro 5-LO activity in words: peritoneal PMNL
T1 construct: Polymorphonuclear leukocytes (PMNLs) were purified from rabbits by glycogen-intraperitoneal elicited intraperitoneal recruitment; endogenous in cells; host or cells: rabbit peritoneal polymorphonuclear leukocytes (PMNL), glycogen-elicited
T1 sequence (G1SNX0 1-674): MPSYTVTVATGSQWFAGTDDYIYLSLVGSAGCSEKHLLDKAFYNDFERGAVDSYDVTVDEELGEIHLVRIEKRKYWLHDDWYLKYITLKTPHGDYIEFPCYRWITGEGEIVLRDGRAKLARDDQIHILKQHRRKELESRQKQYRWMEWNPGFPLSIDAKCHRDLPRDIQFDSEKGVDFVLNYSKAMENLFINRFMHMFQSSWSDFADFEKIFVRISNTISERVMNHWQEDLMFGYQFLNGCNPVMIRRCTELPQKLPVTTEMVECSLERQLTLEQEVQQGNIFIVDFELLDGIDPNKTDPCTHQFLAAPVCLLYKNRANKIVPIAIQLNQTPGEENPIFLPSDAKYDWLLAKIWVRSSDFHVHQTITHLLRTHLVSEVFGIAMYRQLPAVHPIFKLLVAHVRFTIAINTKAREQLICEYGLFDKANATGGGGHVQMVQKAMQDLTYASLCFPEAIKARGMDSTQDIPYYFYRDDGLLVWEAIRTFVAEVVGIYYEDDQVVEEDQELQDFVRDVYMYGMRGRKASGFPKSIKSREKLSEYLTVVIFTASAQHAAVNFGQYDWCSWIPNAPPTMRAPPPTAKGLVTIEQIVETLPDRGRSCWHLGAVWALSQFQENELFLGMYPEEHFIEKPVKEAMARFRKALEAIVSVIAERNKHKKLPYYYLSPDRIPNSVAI
Text: The 5-LO enzyme, which is found primarily in cells of myeloid origin such as polymorphonuclear leukocytes (“PMNL”), eosinophils, and macrophages, catalyzes the first step of the biochemical pathway in which arachadonic acid (“AA”) is,converted into LTA4. […] To test the inhibition of the quinone derivatives on the activity of 5-LO rabbit polymorphonuclear leucocytes (PMNLs) were used.
Polymorphonuclear leukocytes (PMNLs) were purified from rabbits by glycogen-intraperitoneal elicited intraperitoneal recruitment, as descrited in T. Yatabe et al., “Studies on 5-lipoxygenase inhibitors: I. Synthesis and 5-lipoxygenase inhibitory activity of novel hydroxanic acid derivatives,” chem. Pharm. Bull., vol. 46, pp. 966-972 (1998). An intraperitoneal injection of 300 mL of 0.1% (w/v) glycogen in sterile saline was administered 6 h before the rabbits were sacrificed by an intravascular injection of Nembutal. Peritoneal exudates were collected in 5 μM EGTA, and residual red cells were removed by lysis in ammonium chloride. These cell preparations were obtained with greater than 96% purity, as assessed by Wright-Giemsa staining and greater than 95% viability as assessed by Trypan blue exclusion.
PMNL cells in suspension were pre-incubated for 20 min at room temperature with ^14C-labeled arachadonic acid (AA) and diluted to 3000 cells μL^−1. Thereafter, the calcium ionophore A-23187 (1 μg/mL) was added to stimulate LTB4 production, and the cells further incubated for 15 min under stirring at 37° C. After incubation, the aqueous samples were successively shaken with a mixture of chloroform/methanol/formic acid (12:12:1) for 30 sec and then with chloroform for 10 sec. Organic phases containing LTB4, 5-HPETE (5-hydroperoxyeicosatetraenoic acid), diHPETEs (dihydroperoxyeicosatetraenoic acids), and prostaglandins (PGs) were pooled, evaporated to dryness under nitrogen and dissolved into a small amount of chloroform-MeOH (1:1). Separation of the 5-LO metabolites was performed by thin layer chromatography (TLC) on silica gel G plates developed in diethyl ether-hexane-acetic acid (60:40:1, v/v/v).
Bands containing 5-lipoxygenase (5-LO) metabolites were scraped from the TLC plates, and ^14C levels were quantitatively measured by liquid scintillation. 5-LO activity was an obtained from the amount of ^14C-arachidonic acid converted into LTB4 after the prelabeled PMNL cells were stimulated to produce LTB4 by the calcium ionophore as described above. IC50 was calculated as the concentration of the 5-LO antagonist that produced 50% inhibition of the metabolite conversion.
[…] IC50 values, calculated as theconcentration of test compound required to cause 50% inhibition of LTB4 formation, were also determined for some representative examples. […] These compounds, in general, correspond to compounds bearing the more lipophilic quinone fragments. […] See S. Ohkawa et al., “Dual Inhibition of Thromboxane A2 Synthetase and 5-Lipoxygenase with Scavenging Activity of Active Oxygen Species. Synthesis of a Novel Series of (3-Pyridylmethyl)benzoquinone Derivatives,” J. Med. Chem., vol. 34, pp. 267-276 (1991).

[1] = tested on: arachidonic acid-induced ear inflammation in mice; assay: Arachidonic acid-induced ear inflammation in mice (AAE test); type: in vivo; conditions: mice, topical
5-LO = biological target: T2, 5-LO (Rattus norvegicus, UniProt P12527); assay: 5-LO inhibition by radioimmunoassay (RIA) in rat peritoneal PMNL; conditions: inhibitors at 'AM final concentration' [sic], mean ± SD
T2 sequence (P12527 1-673): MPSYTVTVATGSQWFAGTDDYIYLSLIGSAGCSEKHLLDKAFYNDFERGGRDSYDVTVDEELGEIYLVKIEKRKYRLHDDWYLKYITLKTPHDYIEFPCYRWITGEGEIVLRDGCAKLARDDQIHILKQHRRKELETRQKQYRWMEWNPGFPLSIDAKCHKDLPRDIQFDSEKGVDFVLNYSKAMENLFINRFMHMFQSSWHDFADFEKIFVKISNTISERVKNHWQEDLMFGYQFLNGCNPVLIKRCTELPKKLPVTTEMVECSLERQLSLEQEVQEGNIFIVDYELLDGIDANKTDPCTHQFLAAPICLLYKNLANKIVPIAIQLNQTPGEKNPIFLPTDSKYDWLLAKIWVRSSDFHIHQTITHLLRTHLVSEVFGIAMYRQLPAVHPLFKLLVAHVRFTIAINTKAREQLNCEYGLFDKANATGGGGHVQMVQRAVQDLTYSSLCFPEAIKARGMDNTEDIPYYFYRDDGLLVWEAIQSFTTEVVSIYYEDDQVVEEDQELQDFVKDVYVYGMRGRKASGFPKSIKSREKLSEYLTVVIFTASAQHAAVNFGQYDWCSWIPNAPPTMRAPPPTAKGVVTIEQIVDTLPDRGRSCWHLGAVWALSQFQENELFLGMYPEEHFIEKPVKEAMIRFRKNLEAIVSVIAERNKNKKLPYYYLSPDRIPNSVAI
Text: as §1

[2] = Mus musculus, 250 μg/ear, read-out: % inhibition of AA-induced ear inflammation

Sequence of COX-1 (P23219 24-599): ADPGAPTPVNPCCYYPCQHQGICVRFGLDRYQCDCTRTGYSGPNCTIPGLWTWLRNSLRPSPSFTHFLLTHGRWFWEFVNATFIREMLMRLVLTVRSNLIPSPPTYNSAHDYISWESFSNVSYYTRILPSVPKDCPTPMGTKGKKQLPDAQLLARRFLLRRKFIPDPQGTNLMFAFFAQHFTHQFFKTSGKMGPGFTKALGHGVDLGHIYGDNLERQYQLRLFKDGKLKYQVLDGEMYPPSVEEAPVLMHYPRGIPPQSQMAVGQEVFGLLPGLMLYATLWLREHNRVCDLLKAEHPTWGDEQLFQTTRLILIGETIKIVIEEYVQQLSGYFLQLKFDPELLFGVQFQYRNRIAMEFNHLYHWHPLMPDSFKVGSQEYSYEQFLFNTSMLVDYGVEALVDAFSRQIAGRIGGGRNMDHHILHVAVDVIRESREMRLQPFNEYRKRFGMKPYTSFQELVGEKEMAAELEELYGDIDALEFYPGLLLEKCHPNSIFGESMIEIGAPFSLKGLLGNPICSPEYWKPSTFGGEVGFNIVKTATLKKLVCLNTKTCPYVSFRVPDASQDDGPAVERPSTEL

Compound: CC(=O)Oc1ccccc1C(=O)O [Aspirin, reference compound]
inhibition at 500 µM (COX-1): 83.1 ± 2%

melting point: 102 to 104 °C
Compound: O=C1C=CC(=O)C(Nc2ccccn2)=C1 [Compound 4a]

inhibition at 1 µM (5-lipoxygenase (5-LO)): 86 ± 2.3% | melting point: 162 to 164 °C
Compound: CC1=CC(=O)C=C(Nc2ccccn2)C1=O [Compound 4b, 2-Methyl-6-(pyridin-2-ylamino)-[1,4]benzoquinone]

inhibition at 1 µM (5-lipoxygenase (5-LO)): 88 ± 5.2%
Compound: CC1=C(C)C(=O)C(Nc2ccccn2)=CC1=O [Compound 4d, 2,3-Dimethyl-5-(pyridin-2-ylamino)-[1,4]benzoquinone]
change in vivo at 50 µg/ear ([1]; Mus musculus, 50 μg/ear, read-out: % inhibition of AA-induced ear inflammation): -18.3 ± 3.3% | change in vivo at 100 µg/ear ([1]; Mus musculus, 100 μg/ear, read-out: % inhibition of AA-induced ear inflammation): -27.8 ± 3.6% | change in vivo at 250 µg/ear [1, 2]: -35.9 ± 7.4%

inhibition at 1 µM (5-lipoxygenase (5-LO)): 64 ± 4.3% | melting point: 165 to 167 °C
Compound: O=C1C=C(Nc2ccccn2)C(=O)C(c2ccccc2)=C1 [Compound 4f, 2-Phenyl-6-(pyridin-2-ylamino)-[1,4]benzoquinone]

melting point: 106 to 108 °C
Compound: COC1=C(OC)C(=O)C(Nc2ccc(Cl)cn2)=C(C)C1=O [Compound 4g, 2-(5-Chloropyridin-2-ylamino)-5,6-dimethoxy-3-methyl-[1,4]benzoquinone]

melting point: 99 to 100 °C
Compound: COC1=C(OC)C(=O)C(Nc2ccc(Br)cn2)=C(C)C1=O [Compound 4h, 2-(5-Bromopyridin-2-ylamino)-5,6-dimethoxy-3-methyl-[1,4]benzoquinone]

melting point: 130 to 132 °C
Compound: CC1=C(Nc2ccccn2)C(=O)c2ccccc2C1=O [Compound 4j, 2-Methyl-3-(pyridin-2-ylamino)-[1,4]naphthoquinone]

inhibition at 1 µM (5-lipoxygenase (5-LO)): 24 ± 3.7% | in vitro 5-LO activity in words (5-lipoxygenase (5-LO)): significant inhibition of 5-LO | melting point: 251 to 252 °C
Compound: O=C1C=C(Nc2ccc(Cl)cn2)C(=O)c2ccccc21 [Compound 4k, 2-(5-Choropyridin-2-ylamino)-[1,4]naphthoquinone]

melting point: 245 to 246 °C
Compound: O=C1C=C(Nc2ccc(I)cn2)C(=O)c2ccccc21 [Compound 4m, 2-(5-Iodopyridin-2-ylamino)-[1,4]naphthoquinone]

melting point: 249 to 250 °C
Compound: O=C1C=C(Nc2ncc(Cl)cc2Cl)C(=O)c2ccccc21 [Compound 4n, 2-(3,5-Dichloropyridin-2-ylamino)-[1,4]naphthoquinone]

inhibition at 1 µM (5-lipoxygenase (5-LO)): 56 ± 3.1% | melting point: 167 to 169 °C
Compound: CC1=CC(=O)C=C(Nc2ncccn2)C1=O [Compound 4o, 2-Methyl-6-(pyrimidin-2-ylamino)-[l 4]benzoquinone]

melting point: 132 to 134 °C
Compound: COC1=C(OC)C(=O)C(Nc2ncccn2)=C(C)C1=O [Compound 4q, 2,3-Dimethoxy-5-methyl-6-(pyrimidin-2-ylamino)-[1.4]benzoquinone]

melting point: 229 to 230 °C
Compound: O=C1C=C(Nc2nccc(-c3ccccc3)n2)C(=O)c2ccccc21 [Compound 4u, 2-(4-Phenylpyrimidin-2-ylamino)-[1,4]naphthoquinone]

in vitro 5-LO activity in words (5-lipoxygenase (5-LO)): inactive
Compound: CC1=CC(=O)C=C(Nc2cnccn2)C1=O [Compound 4v, 2-Methyl-6-(pyrazin-2-ylamino)-[1,4]benzoquinone]

in vitro 5-LO activity in words (5-lipoxygenase (5-LO)): inactive | melting point: 134 to 136 °C
Compound: CC1=CC(=O)C(Nc2cnccn2)=CC1=O [Compound 4x, 2-Methyl-5-(pyrazin-2-ylamino)-[1,4]benzoquinone]

activation (LTB4 formation) (5-lipoxygenase (5-LO); at 0.1 μM, PMNL): ^d180% activation at 0.1 μM. | in vitro 5-LO activity in words (5-lipoxygenase (5-LO)): agonist activity | melting point: 245 to 247 °C
Compound: O=C1C=C(Nc2cnccn2)C(=O)c2ccccc21 [Compound 4y, 2-(Pyrazin-2-ylamino)-[i, 4]naphthoquinone]

Compound: COc1ccc2c(c1)c(CC(=O)O)c(C)n2C(=O)c1ccc(Cl)cc1 [Indometacin, reference compound]
change in vivo at 250 µg/ear [1, 2]: -26.6 ± 7.3%

Compound: CC(C)c1ccc2c(c1)c(SC(C)(C)C)c(CC(C)(C)C(=O)O)n2Cc1ccc(Cl)cc1 [MK-886, 3-[3-t-Butylthio-l-(p-chlorobenzyl)-5-isopropylindol-2-yl]-2,2-dimethylpropionic acid, reference compound]
% inhibition of AA-induced ear inflammation ([1]; 250 μg/ear): −25.7 ± 8.1%

5-LO percent inhibition (5-LO): 92.0 ± 4.2%
Compound: CC(Cc1ccc(O)c(O)c1)C(C)Cc1ccc(O)c(O)c1 (stereo not shown) [NDGA, reference compound]
